Where a name gives a salt, the structure may show the parent alone. Read-outs that look alike come from different tables or passages of the source.

A short description of data set [1]: Effect on nerve cell survival and toxicity in culture (dissociated neonatal rat cerebellum). It counts as cell-based. As to conditions: rat, cerebellar nerve cells. On the procedure:
(§1) A concentration-dependent (dose-response) effect on nerve cell survival was determined for each compound at a concentration range of 0.001-5000 micromolar (μM). The compounds were added to 3-day-old cultures and the effect was examined 24 hours later.
(§2) Nerve cell survival was evaluated by phase contrast microscopy and trypan blue exclusion staining.
(§3) The results, summarized in Table 1, show the compound concentrations at which 20% or more cells survived (Survival) relative to controls, and at which 50% of the cells died (TD50) when compared to controls. Control cultures were grown in enriched medium alone and represent 100% values.

The test system of data set [2] is nerve cell survival after NMDA neurotoxic challenge. As to the kind of experiment: Reversal of N-methyl-D-aspartate induced cell death in culture. The note with it: for Percent Protection: after NMDA, survival minus NMDA effect. On the procedure:
The cerebellum is aseptically dissociated from 6 or 7-day old rat pups and placed in a 15 ml sterile plastic conical tube containing 3 ml of Dulbecco's modified Eagle's medium containing high glucose concentration ([…]), 2 Mm (v/v) L-glutamine and an antibiotic mixture. The cerebella are then dissociated after 20-25 passages through a sterile 13 gauge, 10 cm long stainless steel needle attached to a 5 ml syringe with an inserted 45 micrometer pore nylon sieve. The dissociated cells are centrifuged at 200 g for 5 minutes. The supernatant is discarded and the cells resuspended in medium enriched with 15% (v/v) heat inactivated fetal calf serum. Cell viability is determined by the trypan blue exclusion test.
Cells are plated at a density of 200/mm^2 on poly-L-lysine coated surfaces which are prepared at least one hour in advance of plating by covering the surfaces (plastic Petri dishes or glass coverslips) with sterile distilled water solution containing 15 micrograms/ml poly-L-lysine, and washing in sterile water just prior to use. The plated cells are covered with enriched medium and incubated at 37° C. in an atmosphere of 5% CO2 in air and 97% humidity. After three days in culture, the media is replaced with media containing the desired compound. Each compound is tested in duplicate and each experiment repeated at least once.
Four groups were run in each set of experiments:
1. Control, consisting of cells grown in enriched media alone;
2. N-methyl-D-aspartate (NMDA, 1 Mm for 3 hours) as the cytotoxic challenge;
3. Test compound added after the NMDA challenge;
4. Positive control, spermine or spermidine (0.01 μM) after NMDA.
The number of surviving cells was examined 24 hours after the challenge. Surviving cells in culture are measured relative to control (100%) as described above. Percent Protection is the cell survival for the test compound minus the NMDA effect. […] The Effective Protection value was calculated as the percent of the Percent Protection (X) divide by the maximal protection value (e.g. X×100/70).

Data set [3] has as its system pyramidal neurons of the CA1 layer of the anterior hippocampus. As to the kind of experiment: animal or person. The data set is classed as in vivo. How it is done: Male mongolian gerbils, aged 2.5-5 months, housed 4-8 in a cage, are supplied freely with food and water and maintained at 24° C. with a 12 hour day/night cycle. For surgery, the animals are anesthetized with halothane (1.5% in 100% O2) and the common carotid arteries exposed bilaterally through a midline ventral neck incision. Each artery is clamped for 5 minutes with aneurysm clips to produce global brain ischemia. The anesthesia is discontinued upon clamping. After 5 minutes the clamps are removed and the wound closed with skin clips
For treatment, the test compound or saline (0.9% NaCl, vehicle) are injected intraperitoneally (ip) in a volume of 50 microliters of solvent per 10 g body weight. The first injection is given 5 minutes after clamp removal, and thereafter daily for the next 2 post-operative days (total of 3 injections).
Four general groups, each of 4-8 animals were compare:
1. Control (sham, or unoperated and vehicle treated);
2. Ischemia, untreated or vehicle treated;
3. Ischemia, test compound treated, one sub-group per concentration tested;
4. Ischemia and pentobarbital (40 mg/kg) as positive control.
Analysis of neuronal damage was performed 14 days post-ischemia by counting pyramidal neurons throughout the CA1 layer of the anterior hippocampus in 4 micrometer thick (paraffin) coronal brain sections, stained with hematoxylin eosin. Values of cell numbers in the hippocampi of individual gerbils were expressed as percent of intact controls (control cell counts were 275±25 cells/mm^2).
Percent Protection values represent the fraction of hippocampi protected from ischemia in a group of animals treated with the stated dose of compound.

For another data set, the system named is cell proliferation. In words: Toxicity and cell proliferation, general statement. The data set is classed as cell-based.
A further data set deals with nicotine receptors. As to conditions: background; cited from earlier work.
A further data set relates to NMDA receptors. As to conditions: background; cited from earlier work.
Data set [4] has as its system intracellular imidazoline receptors. As to conditions: background; cited from earlier work.
Data set [5] deals with ADP-ribosylation of proteins. The note with it: acts as ADP-ribose acceptor; background; cited from earlier work.
The conditions of data set [6]: animals; background; cited from earlier work.
Data set [7] has as its system ischemia-induced nerve cell death. As to conditions: gerbils; Gilad et al. 1989, 1991, 1992; cited from earlier work.
The next data set has as its system nerve cell survival. As to the kind of experiment: Effect on nerve cell survival and toxicity in culture (dissociated neonatal rat cerebellum). The data set is classed as cell-based. The note with it: 24 hours. How it is done: as §1, §2, §3
The mark [8] stands for this setting: 24 hours, 3-day-old cultures, read-out: TD50 (concentration at which 50% of the cells died).
Setting [9] is: Rattus norvegicus, 24 h, read-out: Effective Protection.
Where [10] appears, read: Rattus norvegicus, 24 h, read-out: Surviving Cells in Culture.
Setting [11] is: Meriones unguiculatus, Pyramidal neuron, ip, 336 h, read-out: Percent Protection.
The mark [12] stands for this setting: TD50 (concentration at which 50% of the cells died).

As to `N=C(N)NCCCCN` [Agmatine, agmatine], the CC50 at 24 h in [1] (setting [8]) was found to be 500 µM. Further, in data set [2] (10 μM), the “Percent Protection” value worked out at 35%. Further, the “Percent Protection” value in [2] (50 μM) is given as 51%. Also, in [2] (setting [9]), the inhibition at 10 µM was 50% and the inhibition at 50 µM is 73%. For the same molecule, in data set [2] (setting [10]), the viability at 10 µM was found to be 65% and the viability at 50 µM worked out at 81%. In addition, in data set [3] (setting [11]), the responders at 10 mg/kg came out at 20%, the responders at 50 mg/kg came out at 50% and the responders at 100 mg/kg came to 75%. In addition, in the data set on cell proliferation, the Toxicity entry was “relatively non-toxic”. In addition, the Cell proliferation entry in the data set on cell proliferation (at some concentrations) is reported as “accelerates cell proliferation”. In addition, the “Interaction with nicotine receptors” value with nicotine receptors is listed as “interaction with membrane receptors”. Moreover, in the data set on NMDA receptors, the “Interaction with NMDA receptors” value is “interaction with membrane receptors”. Also, the “Interaction with intracellular imidazoline receptors” value in data set [4] was “interaction with membrane receptors”. Further, in data set [5], the “Effect on ADP-ribosylation of proteins” value was “inhibit ADP-ribosylation of proteins”. The Insulin-like effects entry in data set [6] is “produces insulin-like effects in animals”.
`NCCCNCCCCNCCCN` [Spermine] came in with a CC50 at 24 h in [1] of 2 µM. Also, the figures for the “Percent Protection” value in data set [2] (0.005 μM) and in data set [2] (0.01 μM) were -5% and 38%, respectively. Besides, the inhibition at 0.01 µM in data set [2] (setting [9]) stood at 54%. The viability at 0.005 µM in data set [2] (setting [10]) worked out at 25%. The viability at 0.01 µM in data set [2] (setting [10]) came to 68%. The responders at 10 mg/kg in data set [3] (setting [11]) was 65%. Also, the “Effect against ischemia-induced nerve cell death” value in [7] is given as “protecting against ischemia-induced nerve cell death in gerbils”.
For `CNC1(C)C2CCC(C2)C1(C)C` (centres unmarked) [Mecamylamine], the CC50 at 24 h in data set [1] (setting [12]) came out at 500 µM. The “Percent Protection” value in data set [2] (25 μM) amounted to 37%. Moreover, in data set [2] (setting [9]), the inhibition at 25 µM turned out to be 53%. The viability at 25 µM in [2] (setting [10]) came out at 67%. Further, the responders at 10 mg/kg in [3] (setting [11]) was determined as 40%.
In the case of `Clc1ccc2c(c1)Nc1ccccc1S2` [2-Cl-phenothiazine], in data set [1] (setting [12]), the CC50 at 24 h worked out at 5 µM. Moreover, in data set [2] (10 μM), the “Percent Protection” value turned out to be 15%. Also, the “Percent Protection” value in data set [2] (50 μM) came out at 32%. For the same molecule, in data set [2] (setting [9]), the inhibition at 10 µM came out at 21% and the inhibition at 50 µM was 46%. Also, in [2] (setting [10]), the viability at 10 µM is 45% and the viability at 50 µM turned out to be 62%. The responders at 10 mg/kg in [3] (setting [11]) was 65%.
`C1C2CC3CC1CC(C2)C3` [Adamantane] gave a CC50 at 24 h in [1] (setting [12]) of 1000 µM. In addition, in data set [2] (10 μM), the “Percent Protection” value came to 13%. In addition, the “Percent Protection” value in data set [2] (50 μM) worked out at 20%. Moreover, in data set [2] (setting [9]), the inhibition at 10 µM turned out to be 19% and the inhibition at 50 µM was determined as 29%. In [2] (setting [10]), the viability at 10 µM was found to be 43% and the viability at 50 µM is 50%. Further, the responders at 50 mg/kg in data set [3] (setting [11]) was 23%.
In the case of `C1CN2CCC1CC2` [Quinuclidine], in data set [1] (setting [8]), the CC50 at 24 h stood at 100 µM. For the same molecule, the “Percent Protection” value in data set [2] (1 μM) was found to be 5%. Also, the “Percent Protection” value in data set [2] (10 μM) is 10%. Moreover, in [2] (setting [9]), the inhibition at 1 µM was 7% and the inhibition at 10 µM worked out at 14%. Besides, in data set [2] (setting [10]), the viability at 1 µM stood at 35% and the viability at 10 µM came out at 40%. Moreover, the responders at 10 mg/kg in [3] (setting [11]) was 15%.
As to `NCCCNCCCCNCCCN1c2ccccc2Sc2ccc(Cl)cc21` [G103, 2-chloro-N-[3-(8-spermidinyl)]-10H-Phenothiazine-10-propanamine.3 HCl], the CC50 at 24 h in data set [1] (setting [8]) was determined as 2 µM. In addition, the “Percent Protection” value in data set [2] (0.01 μM) turned out to be 25%. Moreover, in data set [2] (0.10 μM), the “Percent Protection” value turned out to be 2%. For the same molecule, the “Percent Protection” value in [2] (1 μM) is listed as -10%. In [2] (setting [9]), the inhibition at 0.01 µM came to 36% and the inhibition at 0.1 µM is 3%. Moreover, in [2] (setting [10]), the viability at 0.01 µM stood at 55%, the viability at 0.1 µM came out at 32% and the viability at 1 µM was 20%. For the same molecule, in data set [3] (0.50 mg/kg ip, ischemic gerbils, n=5), the lethality entry is on record as “lethal”. Also, in [3] (setting [11]), the responders at 0.01 mg/kg is 42% and the responders at 0.1 mg/kg was found to be 55%.
For the molecule `CCCC(C)C1(CC)C(=O)NC(=O)NC1=O` (centres unmarked) [Pentobarbital, pentobarbital], in data set [3] (Meriones unguiculatus, Pyramidal neuron, 336 h, read-out: Percent Protection), the responders at 40 mg/kg came to 87%.
In [1] (setting [12]), `NCCCCN` [Putrescine] came in with a CC50 at 24 h of 300 µM. Besides, in data set [2] (0.005 μM), the “Percent Protection” value is 2%. Besides, the “Percent Protection” value in [2] (0.01 μM) was 0%. In [2] (setting [9]), the inhibition at 0.005 µM was 3% and the inhibition at 0.01 µM is 0%. In data set [2] (setting [10]), the viability at 0.005 µM was 32% and the viability at 0.01 µM is 30%. Moreover, the responders at 10 mg/kg in data set [3] (setting [11]) is 35%. Moreover, the “Effect against ischemia-induced nerve cell death” value in data set [7] is “protecting against ischemia-induced nerve cell death in gerbils”.
For the molecule `NCCCCNCCCN` [Spermidine], the CC50 at 24 h in data set [1] (setting [8]) amounted to 2 µM. In data set [2] (0.005 μM), the “Percent Protection” value came out at 0%. The “Percent Protection” value in data set [2] (0.01 μM) came out at 48%. Also, in [2] (setting [9]), the inhibition at 0.005 µM amounted to 0% and the inhibition at 0.01 µM came to 69%. Besides, in data set [2] (setting [10]), the viability at 0.005 µM came out at 30% and the viability at 0.01 µM amounted to 78%. In data set [3] (setting [11]), the responders at 10 mg/kg worked out at 50%. For the same molecule, the “Effect against ischemia-induced nerve cell death” value in [7] is reported as “protecting against ischemia-induced nerve cell death in gerbils”.
Consider `Cl.Cl.NCCCCNCCCN1c2ccccc2Sc2ccc(Cl)cc21` [G102, 2-chloro-N-(4-aminobutyl)-10H-Phenothiazine-10-propanamine-2HCl], for which, in the data set with nerve cell survival, the “Shape of dose-response curve for nerve cell survival” value is “U-shaped dose-response curve”. In addition, in data set [2] (1 μM), the “Percent Protection” value was determined as 40%. For the same molecule, the “Percent Protection” value in data set [2] (50 μM) was 5%. The “Percent Protection” value in data set [2] (250 μM) is 65%. In addition, in [2] (setting [9]), the inhibition at 1 µM was 57%, the inhibition at 50 µM is 7% and the inhibition at 250 µM is 93%. Also, in data set [2] (setting [10]), the viability at 1 µM amounted to 70%, the viability at 50 µM worked out at 35% and the viability at 250 µM was 95%. Also, the toxic in data set [3] (10 mg/kg ip, ischemic gerbils, n=10) is 70%. In addition, in data set [3] (setting [11]), the responders at 1 mg/kg is 40% and the responders at 5 mg/kg was 70%.

The record behind these values is patent publication US5677349A, “Agmatine for the treatment of neurotrauma and neurodegenerative diseases” (priority 1995, dated 1997).
